# According to ChEMBL document CHEMBL6134863, “Novel Mitochondria-Targeted Asymmetric Heptamethine Cyanine Dye for Cancer Targeted NIR Imaging and Potent Necrosis and Senescence Induction with Prolonged Retention” (J Med Chem, 2025):
# Activity calls are given as the source filed them. The calls are words filed in the database; no cut-off is given here.
# What was measured:
# [1] = Drug localization in mitochondria of human NCI-H226 cell by MitoTracker Red based NIR confocal microscopic analysis; format: ADME
# [2] = Drug uptake in human NCI-H226 cells assessed as increase in fluorescence intensity incubated for 24 hrs by fluorescence based microscopic analysis; format: ADME, cell-based; conditions: nci-h226, 24 h
# [3] = Drug accumulation in BALB/c mouse plasma xenografted with human NCI-H520 cells assessed as increase in fluorescence intensity at 0.5 mg/kg, iv measured at 96 to 120 hrs by imaging based analysis; format: ADME, organism-based; conditions: in vivo, time 96-120 hrs
# [4] = Acute toxicity in BALB/c mouse implanted with mouse 4T1 cells assessed as change in body weight at 5 mg/kg, iv measured for 11 days; format: organism-based; conditions: in vivo, 264 h, time 11 day
# [5] = Antioxidant activity of compound in presence of ROS; format: functional
# NCI-H226 [6] = test: Induction of apoptosis in human NCI-H226 cells assessed as necrotic cells at 5 uM incubated for 48 hrs by Annexin V-FITC/PI staining based flow cytometry (reference value: 0.048 %); format: functional
# Mitochondrial membrane [7] = test: Induction of mitochondrial membrane potential loss in human NCI-H226 cells; format: cell membranes
# [8] = Antioxidant activity of compound in presence of CO3; format: functional
# [9] = Antioxidant activity of compound in presence of Ca2+; format: functional
# [10] = Antioxidant activity of compound in presence of Cl-; format: functional
# NCI-H226 [11] = test: Induction of apoptosis in human NCI-H226 cells assessed as early apoptotic cells at 5 uM incubated for 48 hrs by Annexin V-FITC/PI staining based flow cytometry (reference value: 2.93 %); format: functional
# [12] = Toxicity in BALB/c mouse implanted with mouse 4T1 cells assessed as kidney damage at 5 mg/kg, iv measured for 11 days by H and E staining based analysis; format: organism-based; conditions: in vivo, 264 h, time 11 day
# [13] = Antioxidant activity of compound in presence of RSS; format: functional
# [14] = Drug uptake in human NCI-H226 cells assessed as increase in red fluorescence intensity at 5 uM incubated for 30 mins by CY7 staining based microscopic analysis; format: ADME, cell-based; conditions: nci-h226, 0.5 h
# NCI-H226 [15] = test: Induction of apoptosis in human NCI-H226 cells assessed as viable cells at 5 uM incubated for 48 hrs by Annexin V-FITC/PI staining based flow cytometry (reference value: 93.4 %); format: functional; conditions: read-out: Activity
# [16] = Toxicity in BALB/c mouse implanted with patient-derived Squamous carcinoma cell line assessed as change in body weight at 0.5 mg/kg, iv measured for 5 days; format: organism-based; conditions: in vivo, 120 h, time 5 day
# [17] = Drug accumulation in BALB/c mouse tumor implanted with mouse 4T1 cells assessed as increase in fluorescence intensity at 0.5 mg/kg, iv measured at 48 hrs by imaging based analysis; format: ADME, organism-based, Neoplasm; conditions: in vivo
# [18] = Antioxidant activity of compound in presence of SO4; format: functional
# [19] = Distribution coefficient, logD of compound; format: physicochemical; conditions: octanol/water
# NIH3T3 = test: Cytotoxicity against mouse 3T3 cells assessed as decrease in cell viability up to 5 uM incubated for 24 hrs by CCK-8 assay; format: toxicity, cell-based; conditions: nih3t3, 24 h
# [20] = Antioxidant activity of compound in presence of OH; format: functional
# [21] = Antioxidant activity of compound in presence of NO2; format: functional
# [22] = Antioxidant activity of compound in presence of Glutathione; format: functional
# [23] = Partition coefficient, logP of compound; format: physicochemical; conditions: octanol/water
# [24] = Toxicity in BALB/c mouse implanted with mouse 4T1 cells assessed as survival rate at 5 mg/kg, iv measured for 11 days; format: organism-based; conditions: in vivo, time 11 day
# [25] = Stability of compound at 30 degreeC by thermogravimetric analysis; format: physicochemical
# [26] = Drug uptake in mouse 4T1 cells assessed as increase in green fluorescence intensity at 5 uM incubated for 30 mins by F-actin staining staining based microscopic analysis; format: ADME, cell-based; conditions: 4t1, 0.5 h
# [27] = Antioxidant activity of compound in presence of Br-; format: functional
# [28] = Antioxidant activity of compound in presence of HCHO; format: functional
# [29] = Drug accumulation in BALB/c mouse plasma implanted with mouse 4T1 cells assessed as increase in fluorescence intensity at 0.5 mg/kg, iv measured at 96 to 120 hrs by imaging based analysis; format: ADME, organism-based; conditions: in vivo, time 96-120 hrs
# [30] = Drug uptake in mouse 4T1 cells assessed as increase in red fluorescence intensity at 5 uM incubated for 30 mins by CY7 staining based microscopic analysis; format: ADME, cell-based; conditions: 4t1, 0.5 h
# [31] = Antioxidant activity of compound in presence of H2O2-; format: functional
# Mitochondrial membrane [32] = test: Induction of mitochondrial membrane potential loss in human NCI-H226 cells at 2 uM incubated for 4 hrs by TMRE staining based fluorescence microscopic analysis; format: cell membranes
# [33] = Cytotoxicity against human Primary lung fibroblast assessed as decrease in cell viability up to 5 uM incubated for 24 hrs by CCK-8 assay; format: toxicity, cell-based
# 4T1 = test: Antitumor activity against mouse 4T1 cells implanted in BALB/c mouse assessed as tumor growth inhibition 5 mg/kg, iv measured for 11 days; format: functional; conditions: 4T1, 264 h, time 11 day, read-out: TGI
# [34] = Stability of compound in DMSO-H2O incubated for 1 hr by absorbance based analysis; format: physicochemical
# [35] = Stability of compound in DMSO-H2O incubated for 150 mins by absorbance based analysis; format: physicochemical; conditions: 2.5 h
# [36] = Drug accumulation in tumor to muscle of BALB/c mouse implanted with mouse 4T1 cells at 0.5 mg/kg, iv measured at 4 to 168 hrs; format: ADME, organism-based; conditions: in vivo, time 4-168 hrs
# [37] = Drug uptake in human NCI-H226 cells assessed as increase in green fluorescence intensity at 5 uM incubated for 30 mins by F-actin staining staining based microscopic analysis; format: ADME, cell-based; conditions: nci-h226, 0.5 h
# [38] = Antioxidant activity of compound in presence of RNS; format: functional
# [39] = Antioxidant activity of compound in presence of TBHP; format: functional
# [40] = Antioxidant activity of compound in presence of ONOO-; format: functional
# NCI-H250 = test: Antitumor activity against human […] cells xenografted in BALB/c mouse assessed as tumor growth inhibition 0.5 mg/kg, iv measured for 5 days; format: functional, organism-based; conditions: time 5.0 day
# NCI-H226 [41] = test: Cytotoxicity against human NCI-H226 assessed as decrease in cell viability up to 10 uM incubated for 24 hrs by CCK-8 assay; format: functional, cell-based
# [42] = Antioxidant activity of compound in presence of HSO3-; format: functional
# [43] = Antioxidant activity of compound in presence of ClO-; format: functional
# [44] = Solubility of compound in DMSO-H2O; format: physicochemical
# [45] = Antioxidant activity of compound in presence of Fe3+; format: functional
# [46] = Antioxidant activity of compound in presence of HCO3-; format: functional
# [47] = Antioxidant activity of compound in presence of […]; format: functional
# [48] = Photostability of compound in DMSO-H2O incubated for 1 hr irradiated with deuterium lamp by absorbance based analysis; format: physicochemical; conditions: read-out: Stability
compound,measurement,setting,value
CCCN1/C(=C/C=C2\CCCC(/C=C/C3=[N+](Cc4ccc(C(=O)O)cc4)c4ccccc4C3(C)C)=C2Cl)C(C)(C)c2ccccc21.[Br-],Drug uptake,[1],Active
same,Drug uptake,[2],Active
same,Drug uptake,[3],Active
same,Activity,[4],Non-toxic
same,Activity,[5],Active
same,Activity,NCI-H226 [6],58.9%
same,Activity,Mitochondrial membrane [7],Active
same,Activity,[8],Active
same,Activity,[9],Active
same,Activity,[10],Active
same,Activity,NCI-H226 [11],0.82%
same,Activity,[12],Non-toxic
same,Activity,[13],Active
same,Drug uptake,[14],Active
same,viability at 5 µM,NCI-H226 [15],26.3%
same,Activity,[16],Non-toxic
same,Drug uptake,[17],Active
same,Activity,[18],Active
same,logD,[19],4.49
same,Activity,NIH3T3,> 80%
same,Activity,[20],Active
same,Activity,[21],Active
same,Activity,[22],Active
same,logP,[23],6.09
same,survival at 264 h,[24],100%
same,Stability,[25],Stable
same,Drug uptake,[26],Active
same,Activity,[27],Active
same,Activity,[28],Active
same,Drug uptake,[29],Active
same,Drug uptake,[30],Active
same,Activity,[31],Active
same,Activity,Mitochondrial membrane [32],Active
same,Activity,[33],Non-toxic
same,inhibition in vivo at 5 mg/kg,4T1,~60%
same,Stability,[34],Stable
same,Stability,[35],Stable
same,Drug uptake,[36],Active
same,Drug uptake,[37],Active
same,Activity,[38],Active
same,Activity,[39],Active
same,Activity,[40],Active
same,TGI,NCI-H250,Active
same,Activity,NCI-H226 [41],Active
same,Activity,[42],Active
same,Activity,[43],Active
same,solubility,[44],170 µg/mL
same,Activity,[45],Active
same,Activity,[46],Active
same,Activity,[47],Active
same,remaining at 1 h,[48],95.8%
